Test results as given in patent US12018083B2, “Method for suppressing regulatory T cell infiltration by CCR4 inhibition and method for treating canine neoplastic disease” (NIPPON ZENYAKU KOGYO CO., LTD., priority 2017, dated 2024).

Assays:
[1] = molecular target: T1, canine CCR4 (Canis lupus familiaris, UniProt Q8MJW8); assay: Chemotaxis assay with a membrane chamber, canine lymphocyte cell line CL-1 and canine recombinant CCL17; assay type: cell-based; details: canine lymphocyte cell line CL-1; FIG. 8
T1 construct: Using a canine lymphocyte cell line (CL-1) expressing canine recombinant CCL17 and CCR4, a chemotaxis assay was carried out; endogenous in cells; host or cells: CL-1 canine lymphocyte cell line
T1 sequence (Q8MJW8 1-360): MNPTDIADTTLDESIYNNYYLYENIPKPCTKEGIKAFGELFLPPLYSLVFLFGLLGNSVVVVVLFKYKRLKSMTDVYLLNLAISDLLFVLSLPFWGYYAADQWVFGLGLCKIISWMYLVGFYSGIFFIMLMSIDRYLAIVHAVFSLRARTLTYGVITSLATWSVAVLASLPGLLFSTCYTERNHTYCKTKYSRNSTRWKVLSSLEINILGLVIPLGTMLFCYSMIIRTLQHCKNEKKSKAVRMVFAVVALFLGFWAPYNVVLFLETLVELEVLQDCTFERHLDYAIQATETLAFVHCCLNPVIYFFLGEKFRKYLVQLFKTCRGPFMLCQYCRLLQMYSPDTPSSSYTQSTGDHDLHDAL
Description: Thus, the cross-reactivity of these inhibitors with canine CCR4 was studied. Using a canine lymphocyte cell line (CL-1) expressing canine recombinant CCL17 and CCR4, a chemotaxis assay was carried out with a membrane chamber.

[2] = test system: transitional cell carcinoma; assay: Clinical test on dogs, antitumor effects; assay type: in vivo, dog; details: 5/11 cases, 1 mg/kg intravenous every three weeks; FIG. 15
[3] = test system: CCR4-positive Tregs in the peripheral blood; assay: Clinical test on dogs with various tumors, all 17 cases; assay type: in vivo, dog; details: 1 mg/kg intravenous every three weeks
From the text: In the case of prostate cancer, 2/4 cases (50%) had partial response, and 2/4 cases (50%) were stable (FIG. 16). In the case of breast cancer, 1/2 cases (50%) had partial response, and 1/2 cases (50%) was stable (FIG. 17). […] However, all of the side effects were mild.

[4] = test system: breast cancer; assay: Clinical test on dogs, antitumor effects; assay type: in vivo, dog; details: 1/2 cases, 1 mg/kg intravenous every three weeks; FIG. 17
[5] = test system: CCR4-positive T cells in blood; assay: Single intravenous administration of anti-human CCR4 antibody to healthy dog; assay type: in vivo
From the text: Furthermore, the effects were sustained for 3 to 4 weeks. […] These side effects were improved 1 week after the administration, without any treatments.

[6] = test system: canine transitional cell carcinoma cell line; assay: Cancer-bearing mouse models, NOG mice transplanted with canine tumor cells; assay type: in vivo
Description: A comparison was made among the groups, in terms of the tumor volume of the transplanted transitional cell carcinoma cells. […] The tumor tissues were collected from each group at the end point, and the collected tumor tissues were subjected to a histopathologic examination involving H & E (Hematoxylin-Eosin) staining. […] In FIG. 11, the whitish portion in the black-and-white photograph indicates a focus of necrosis. […] Furthermore, intratumoral infiltration of Tregs was evaluated by performing immunohistochemistry on Foxp3. […] In FIG. 12, the portions seen as black points in the black-and-white photograph are sites in which Foxp3-positive Tregs are present.

[7] = test system: prostate cancer; assay: Clinical test on dogs, antitumor effects; assay type: in vivo, dog; details: 2/4 cases, 1 mg/kg intravenous every three weeks; FIG. 16
[8] = test system: canine transitional cell carcinoma; assay: Clinical test of Mogamulizumab combined with Piroxicam versus Piroxicam alone
Description: To the control group, Piroxicam alone was administered (14 cases). The number of CCR4-positive Tregs in the peripheral blood and a tumor size were evaluated before and after the administration.
In the figure, the terms “PR,” “SD,” and “PD” indicate definitions regarding a change in the size of a tumor in the midcourse of a treatment according to RECIST (Response Evaluation Criteria in Solid Tumors), which are evaluation criteria regarding therapeutic effects on solid cancers. Specifically, PR (Partial Response) indicates a state in which a sum of the sizes of tumors has been reduced by 30% or more, SD (Stable Disease) indicates a state in which the size of a tumor has not changed, and PD (Progressive Disease) indicates a state in which a sum of the sizes of tumors has been increased by 20% or more and the size has been increased by 5 mm or more as an absolute value, or a state in which a new lesion has appeared.

COc1cc2nc(N3CCC(N4CCCCC4)CC3)nc(NC3CCCCCC3)c2cc1OC.Cl.Cl [C-021, 2-[1,4′-bipiperidin]-1′-yl-N-cycloheptyl-6,7-dimethoxy-4-quinazolinamine dihydrochloride]
migration of CL-1 by the recombinant CCL17 [1]: significantly suppressed

Mogamulizumab: anti-human CCR4 antibody (Kyowa Kirin Co., Ltd.), a neutralizing antibody
cases with partial response [2]: 45.5% | side effect: facial edema and/or redness, cases ([3]; 1/17 cases): 5.9% | side effect: slight increase in ALP, cases ([3]; 3/17 cases): 17.6% | side effect: vomiting, cases ([3]; 3/17 cases): 17.6% | severity of all of the side effects ([3]; 17 cases): mild | number of CCR4-positive Tregs in peripheral blood ([3]; all cases, FIG. 14): drastically reduced | cases with partial response [4]: 50% | migration of CL-1 by the recombinant CCL17 [1]: significantly suppressed | side effects ([5]; 1 mg/kg intravenous): nausea, a slight increase in ALP, and a slight increase in CRP | time after administration at which side effects improved without any treatments ([5]; 1 mg/kg intravenous): 1 week | number of CCR4-positive T cells in blood ([5]; 1 mg/kg intravenous, flow cytometry, FIG. 9): reduced by half | side effects ([5]; 0.01 to 0.1 mg/kg intravenous): no side effects were found | intratumoral infiltration of Tregs (Foxp3 immunohistochemistry) ([6]; combined use group of canine PBMC and Mogamulizumab versus canine PBMC group, FIG. 12, 13): significantly suppressed | focus of necrosis in tumor tissue (H & E staining) ([6]; combined use group of canine PBMC and Mogamulizumab, compared with other groups, FIG. 11): an expansion of the focus of necrosis was observed | growth of the tumor (tumor volume) ([6]; combined use group of canine PBMC and Mogamulizumab, FIG. 10): significantly suppressed | cases with partial response [7]: 50% | number of CCR4-positive Tregs in the peripheral blood ([8]; after Mogamulizumab 1 mg/kg IV every three weeks plus Piroxicam 0.3 mg/kg PO daily, FIG. 18, 19): reduced | response percentage according to RECIST ([8]; combined use group with Mogamulizumab versus single administration group of Piroxicam, FIG. 22, 23): higher response percentage | progression-free survival periods (PFS) ([8]; combined use group with Mogamulizumab versus single administration group of Piroxicam, FIG. 24): better improvement | overall survival periods (OS) ([8]; combined use group with Mogamulizumab versus single administration group of Piroxicam, FIG. 25): better improvement | tumor (mass) size / tumor volume ([8]; combined use group with Mogamulizumab, FIG. 20, 21): reduced
